Experimental data as given in US20210252023A1, “METHODS AND COMPOSITIONS FOR TREATING AND/OR PREVENTING THE PROGRESSION AND/OR ONSET OF AGE-RELATED NEURODEGENERATION” (Enterin, Inc., priority 2018, published 2021).
Entries after “also recorded” stand apart in the source; their conditions may differ.

Legend:
[1] = Brain distribution of radioactive Aminosterol 1436 after IV or ICV administration (FIG. 1); format: in vivo; settings: radioactive compound, rat, peripheral vein (IV) or 3rd ventricle (ICV)
Excerpt: The exact mechanism by which Aminosterol 1436 achieves its effect on preventing, delaying onset, and/or treating neurodegeneration, delaying maturity, retarding aging, and increasing potential lifespan is not known. However, without being bound by theory, Applicant theorizes that the effect of Aminosterol 1436 is likely in part due to the drug's effects on the hypothalamus within the brain of the animal.

[2] = Neuroregeneration in treated adult mouse (cell number in brain areas); format: in vivo
Excerpt: The hypothalamus is of particular interest because it happens to be the site of localization of Aminosterol 1436 in the brain.

HIV = settings: tissue culture; U.S. Pat. No. 5,763,430; cited from earlier work
[3] = Dose response of delay in growth of BDF1 mice (Example 1, FIG. 2); format: in vivo, B6D2F1 (BDF1) mice; settings: 5 and 10 mg/kg IV; data not shown
Description: An experiment was conducted to explore the dose response to a delay in growth of B6D2F1 (BDF1) mice to Aminsoterol 1436. 30 day old male BDF1 mice received either vehicle or Aminosterol 1436 intraveneously (IV) at 5 mg/kg or 10 mg/kg (n=15 for each treatment arm) every 3 days until 51 days of age. The Aminosterol 1436 was administered as a aqueous solution in water. BDF1 mice are available from Charles River Laboratories. The animals were fed standard lab chow, offered ad libitum. The animals were weighed and body length measured every 5 days. […] However, while the control animals reached maturity at 120 days, the animals that received 5 mg/kg of Aminosterol 1436 reached maturity at 150 days, corresponding to a 25% delay in reaching maturity, as measured by end weight. […] Most importantly, both treated and untreated animals reached normal adult dimensions, albeit at different rates.

Structure (SMILES): CC(C)[C@@H](CC[C@@H](C)[C@H]1CC[C@H]2[C@@H]3[C@H](O)C[C@H]4C[C@@H](NCCCNCCCCNCCCN)CC[C@]4(C)[C@H]3CC[C@]12C)OS(=O)(=O)O [Aminosterol 1436, trodusquemine]
- accumulation in the brain [1]: accumulation of Aminosterol 1436 within the centers of the brain that control growth, maturation, and senescence; also recorded: accumulates within the centers of the brain that control growth, maturation and senescence
- neuroregeneration (number of cells in subependymal zone, olfactory bulb, hypothalamus, thalamus) [2]: stimulates neuroregeneration
- antiviral activity against HIV (HIV): exhibits antiviral activity against HIV in tissue culture
- linear growth [3]: slowed to a corresponding degree
